Patent US20240139139A1, “COMPOSITION FOR PREVENTING OR TREATING CEREBROVASCULAR DISEASE” (TOKYO METROPOLITAN INSTITUTE OF MEDICAL SCIENCE, priority 2021, published 2024)

Key:
[1] = tested on: cerebral infarction models of wild-type mice; experiment: Neurological symptoms (Bederson score) in wild-type mouse cerebral infarction model, 15-HETrE intraperitoneal; assay type: in vivo; conditions: 600 μg per mouse intraperitoneally 24 hours after ischemia-reperfusion, vs vehicle, FIG. 8
Method: (§1) To identify lipids associated with pathological conditions of cerebral infarction, a comprehensive analysis was performed on lipids extracted from the cerebral tissue of a mouse model of cerebral infarction. The mouse model of cerebral infarction was prepared according to the following procedure. An embolization suture with a silicone-coated tip (Ethilon (suture gauge number 7-0), Johnson & Johnson) was inserted through the common carotid artery of 8 to 24-week-old C57BL/6N mice. Cerebral temperature was maintained at 36° C., cerebral blood flow was monitored by Doppler blood flowmeter ALF21 (ADVANCE CO., LTD.), and the embolization suture was placed at the origin of the middle cerebral artery so that the cerebral blood flow in the perfused area of the middle cerebral artery was maintained at 20 to 40% of the steady state. By removing the embolization suture after 60 minutes of ischemia, the cerebral tissue was reperfused. As a control, sham-operated mice were prepared.
(§2) Then, cerebral infarction models of PLA2g2e knockout mice (Sato H., et al., 2014, Cell Metab, 20: 119-132) and wild-type mice were prepared by the same procedure as in 1 above (n=12, respectively), and neurological symptoms after ischemia-reperfusion were assessed over time in accordance with the neurological symptoms assessment score reported by Bederson, et al. (Bederson J B, et al., 1986, Stroke, 17: 472-476). […]

[2] = tested on: cerebral infarction models of wild-type mice; experiment: Cerebral infarct volume 28 days after ischemia-reperfusion in wild-type mouse model, 15-HETrE intravenous; assay type: in vivo; conditions: 600 ng intravenously 24, 48, 72 hours, p<0.05 vs vehicle, FIG. 15
Method: as §1, with “By removing the embolization suture after 60 minutes of ischemia, the cerebral tissue was reperfused. As a control, sham-operated mice were prepared.” left out
(§3) Sections were prepared from the cerebral tissue 4 days after ischemia-reperfusion and immunohistochemistry was performed using anti-MAP2 antibody by the same procedure as in 2 above. The cerebral infarct volume was calculated based on the region that was not stained by the anti-MAP2 antibody, which is regarded as the cerebral infarct area.
(§4) Cerebral infarction models of wild-type mice were prepared (n=10) by the same procedure as in 1 above. […] The cerebral infarct volume 28 days after ischemia-reperfusion was calculated by the procedure in 6 above.

[3] = tested on: cerebral infarction models of wild-type mice; experiment: Long-term neurological symptoms by corner test and cylinder test, 15-HETrE intravenous; assay type: in vivo, mouse; conditions: 600 ng intravenously 24, 48, 72 hours, up to 28 days, FIG. 16, 17
Method: as §1, §4
In addition, long-term neurological symptoms were evaluated over time up to 28 days after ischemia-reperfusion by a corner test and a cylinder test (Nat. Med., 2017 June; 23(6):723-732). […]

[4] = tested on: neurons around the infarct area; experiment: RNA-seq and GO analysis of neurons around the infarct area, 15-HETrE intravenous; assay type: in vivo, mouse; conditions: wild-type mice; 600 ng intravenously 24, 48, 72 hours; day 4; RNA-seq vs vehicle; FIG. 18
Method: Cerebral infarction models of neuron-specific Padi4cKO mice and wild-type mice were prepared by the same procedure as in 1 above. At 4 days after ischemia-reperfusion, the brain was isolated after transcardial perfusion with artificial cerebrospinal fluid. The brain was sliced into 300 lam thick sections and homogenized after treated with pronase. Neurons around the infarct area were isolated using anti-Thy1.2 Antibody (BioLegend) by a cell sorter (BD FACSAria III). Single-cell RNA-seq analysis was performed using Chromium Next GEM Single Cell 3′ Kit (10× Genomics) and DNB-seq (MGI Tech), and the results of cell population clustering were visualized as a UMAP plot using Loupe Browser (10× Genomics). A gene ontology (GO) analysis was also performed for each cluster using g:profiler (https:/biit.cs.ut.ee/gprofiler/gost).
Cerebral infarction models of wild-type mice was prepared by the same procedure as in 1 above. At 24, 48, and 72 hours after ischemia-reperfusion, 15-HETrE (600 ng)/phosphate buffer was administered intravenously through the orbital venous plexus. Neurons around the infarct area were isolated from mice on day 4 after ischemia-reperfusion by the procedure in 7 above, and RNA-seq analysis was performed. The analysis results were visualized as a volcano plot using Loupe Browser, and GO analysis was performed using g:profiler. […]

[5] = tested on: cerebral infarction model of PLA2g2e knockout mice; experiment: Cerebral infarct volume (anti-MAP2 staining) in PLA2g2e knockout mouse cerebral infarction model, oral lipid; assay type: in vivo; conditions: 1 mg orally 24, 48 and 72 hours after ischemia-reperfusion, 4 days after ischemia-reperfusion, FIG. 10
Method: as §1, with “prepared. […]” for “prepared.”
as §3

[6] = tested on: promoter region of the mouse Padi4 gene; experiment: Padi4 promoter luciferase reporter assay in Neuro2A cells; assay type: cell-based; conditions: lipids 10 μM, 24 hours, relative to untreated cells = 1, FIG. 9
Method: To identify the lipids inducing PADI4 expression, a luciferase reporter vector was prepared by incorporating the promoter region (SEQ ID NO: 5) of the mouse Padi4 gene (NCBI database accession number: NM_011061) into pGL3-Basic (Promega). The reporter vector was transfected into Neuro2A cells using PEI Max (Polysciences), and reporter cells were obtained. After reporter cells were cultured in media supplemented with lipids (10 μM final concentration) for 24 hours, the luciferase activity was measured with Luciferase Assay System (Promega). […]

[7] = tested on: cerebral infarction model of PLA2g2e knockout mice; experiment: Neurological symptoms over time in PLA2g2e knockout mouse cerebral infarction model, oral lipid; assay type: in vivo; conditions: 1 mg orally 24, 48, 72 hours, vs vehicle or stearic acid, p<0.001, FIG. 11
Method: as §1, with “By removing the embolization suture after 60 minutes of ischemia, the cerebral tissue was reperfused. As a control, sham-operated mice were prepared.” left out
as §2
In addition, neurological symptoms after ischemia-reperfusion were evaluated over time according to the same procedure as in 2 above.

PADI4-positive neurons = experiment: Number of PADI4-positive neurons in the peri-infarct area (immunohistochemistry); assay type: in vivo, mouse; conditions: PLA2g2e knockout mice; 1 mg orally 24, 48, 72 hours; 4 days after ischemia-reperfusion; cells per visual field; FIG. 12
Method: Then, mice were perfused and fixed transcardially using a 4% paraformaldehyde solution 7 days after ischemia-reperfusion, and the brains were isolated. From the isolated cerebral tissue, sections of 1 mm thickness were prepared, embedded in paraffin, thinly sliced to 5 μm, and immunohistochemistry was performed according to an ordinary method. Anti-MAP2 antibody (Sigma-Aldrich, Cat. #M4403) (1:1000 dilution) was used as a primary antibody, and anti-mouse IgG antibody derived from goat (Jackson Immuno Research Laboratories, Inc., Cat. #115-005-003) (1:300 dilution) was used as a secondary antibody. In the figure, the scale bar indicates 1 mm, and the round linear object is an air bubble that was mixed in during the preparation of the specimen. The ischemic necrotic region (unstained region) in the cerebral infarction model of PLA2g2e knockout mice has expanded compared to the cerebral infarction model of wild-type mice. […]
Also, sections were prepared from the cerebral tissue 4 days after ischemia-reperfusion and PADI4-positive neurons were detected by immunohistochemistry by the same procedure as in 2 above, and the number of cells per visual field (approximately 0.1 square millimeter) in the pen-infarct area was counted. […]

[8] = in vivo, po; cited from earlier work

| SMILES | neurological symptoms (Bederson neurological symptoms assessment score) [1] | cerebral infarct volume [2] | long-term neurological symptoms (corner test and cylinder test) [3] | expression of genes associated with neural tissue formation, neurite formation and synapse formation [4] | cerebral infarct volume [5] | Padi4 promoter inducing activity (luciferase activity) [6] | neurological symptoms after ischemia-reperfusion [7] | number of PADI4-positive neurons around the cerebral infarct area (PADI4-positive neurons) | migration into and accumulation in cerebral tissue [8] |
| --- | --- | --- | --- | --- | --- | --- | --- | --- | --- |
| CCCCC[C@H](O)/C=C/C=C\C/C=C\CCCCCCC(=O)O [15-HETrE, 15-hydroxyeicosatrienoic acid] | improved | decreased the cerebral infarct volume | improved neurological symptoms up to 28 days | highly expressed |  |  |  |  |  |
| CCCCCCCCCCCCCCCCCC(=O)O [stearic acid, reference compound] |  |  |  |  | did not change the cerebral infarct volume |  |  |  |  |
| CCCCC/C=C\C/C=C\C/C=C\CCCCCCC(=O)O [DGLA, dihomo-γ-linolenic acid] |  |  |  |  | decreased the cerebral infarct volume | induce Padi4 promoter activity | improvement in neurological symptoms | increased | migrate well into the cerebral tissue and are accumulated in the cerebral tissue even by oral intake |
